1 compound from patent publication EP1263429B1, “ANTIVIRAL THERAPY” (Universiteit Utrecht, priority 2000, dated 2001) can be followed below.

Assay [1] relates to drug-resistant HIV strains. The following applies: Table 2 strains.
Assay [2] concerns HIV-1Ba-L. In words: HIV-1 replication in acutely infected monocyte-derived macrophages (MDM), p24-core antigen ELISA. The assay is classed as cell-based. The protocol:
PBMC are isolated from heparinized blood from HIV-1-, HIV-2-, and hepatitis B-seronegative donors and obtained on Ficoll-Hypaque density gradients. Cells are washed twice and monocytes are purified by countercurrent centrifugal elutriation. Cells are >98% monocytes by criteria of cell morphology on May-Grünwald-Giemsa-stained cytosmears and by nonspecific esterase staining using alpha-naphtylacetate (Sigma Chemical Co., St. Louis, MO) as substrate. Monocytes are cultured in suspension at a concentration of 2 x 10^6 cells/ml in Teflon flasks (Nalgene, Rochester, NY) in Iscove's modified Dulbeco's medium (IMDM) with 10% heat-inactivated human AB serum negative for anti-HIV antibodies, […], and […] (Sigma) for 7 days.
HIV-1 strain Ba-L is grown to high titer in MDM. The 50% tissue culture infectious dose (TCID50) of the virus stock is determined by endpoint dilution with serial fourfold dilutions in a 96-well microtiter plate on MDM. […] The TCID50 of the virus stock is determined by endpoint dilution with serial fourfold dilutions in a 96-well microtiter plate on PBMC.
MDM, and PBMC, were incubated with HIV at a multiplicity of infection of 0.02, and 0.006 or 0.001, respectively. […] The presence of HIV-1 in the inactivated supernatant is monitored by checking for the p24-core antigen using the enzyme-linked immunosorbent assay (ELISA) system of John Moore. […]
For orientation: An ELISA detects its analyte on a solid surface through an enzyme-linked reagent.

The test system of assay [3] is HIV-1Ba-L. In words: HIV-1 replication in acutely infected PBMC, p24-core antigen ELISA. In kind it is cell-based. The following applies: for inhibition at 30 µM: 30 µM APHS. The protocol:
Peripheral blood mononuclear cell (PBMC) fractions are isolated from heparinised blood from HIV-1-, HIV-2- and hepatitis B- seronegative donors (Blood-bank, Utrecht, the Netherlands) by Ficoll-Isopaque gradient separation. Cells are washed twice, stimulated with 4 µg/ml phytohemagglutinin (PHA), and cultured in RPMI-1640 medium supplemented with 5 mM Hepes, 19 mM sodium bicarbonate, 10 µg/ml gentamicin, and 10% heat-inactivated fetal calf serum at a concentration of 1 x 10^6 cells/ml.
HIV-1 strain Ba-L is grown to high titer in MDM. The 50% tissue culture infectious dose (TCID50) of the virus stock is determined by endpoint dilution with serial fourfold dilutions in a 96-well microtiter plate on MDM. HIV-1 strain AT is grown to high titer in PHA-stimulated PBMC. The TCID50 of the virus stock is determined by endpoint dilution with serial fourfold dilutions in a 96-well microtiter plate on PBMC.
MDM, and PBMC, were incubated with HIV at a multiplicity of infection of 0.02, and 0.006 or 0.001, respectively. After two hours cells are washed to remove unbound virus and cultured for 4 to 7 days in different concentrations of the drug under investigation. On day 4, 5 and 7, 0.01 ml of supernatant is removed from the culture and virus in culture supernatant is inactivated in a final concentration of 0.05% empigen (Calbiochem-Novabiochem Co., La Jolla, CA). The presence of HIV-1 in the inactivated supernatant is monitored by checking for the p24-core antigen using the enzyme-linked immunosorbent assay (ELISA) system of John Moore.
(A, B) Peripheral blood mononuclear cells (PBMC) were isolated from heparinized blood from HIV-1-, HIV-2-, and hepatitis B-seronegative donors and obtained on Ficoll-Hypaque density gradients. Cells were washed twice, stimulated with 5 µg/ml phytohemagglutinin (PHA), and cultured m RPMI-1640 medium supplemented with 5 mM Hepes, 19 mM sodium bicarbonate, 10 µg/mL gentamicin, and 10% heat-inactivated fetal calf serum (PBMC culture medium) at a concentration of 2 x 10^6 cells/ml. After 3 days of incubation stimulated PBMC were recovered from the flasks and infected for 2 hours with HIV-1Ba-L at a multiplicity of infection of 0.01. Afterwards, HIV-infected and mock-infected PBMC were washed twice to remove unbound virus. (A) PBMC were cultured at a density of 6 x 10^5 cells/well with different concentrations of APHS and after 5 days of incubation samples of culture supernatant were collected. (B) PBMC were cultured in suspension at a concentration of 2 x 10^6 cells/ml in Teflon flasks in PBMC culture medium. After 5 days of incubation PBMC were recovered from Teflon flasks, washed twice to remove unbound virus and cultured at a density of 6 x 10^5 PBMC / well with different concentrations of APHS. After 2 days of incubation samples of culture supernatant were collected. p24-core antigen production was quantified using the enzyme-linked immunosorbent assay (ELISA) system of John Moore. […] (C, D) PBMC were isolated from heparinized blood from HIV-1-, HIV-2-, and hepatitis B-seronegative donors and obtained on Ficoll-Hypaque density gradients. PBMC were washed twice and monocytes were purified by countercurrent centrifugal elutriation. Cells were >98% monocytes by criteria of cell morphology on May-Grünwald-Giemsa-stained cytosmears and by nonspecific esterase staining using alpha-naphtylacetate as substrate. […]

`CCCCC#CCSc1ccccc1OC(C)=O` [APHS, o-(acetoxy-phenyl)hept-2-ynyl sulphide]: in assay [1], the “inhibitory activity against drug resistant strains versus activity against a sensitive strain” value is “two- to four-fold higher”. The “APHS concentrations that inhibit p24 production by acutely infected MDM” value in assay [2] (96 h) is “above 3 :M”. Besides, the inhibition at 30 µM was determined as 88% in assay [2] (Human immunodeficiency virus 1, Macrophage, 30 µM APHS, Fig 2, MDM, multiplicity of infection 0.02); 100% in assay [3] (Human immunodeficiency virus 1, 120 h, Fig 6A, acute infection of PBMC, multiplicity of infection 0.01, 5 days); 100% in assay [3] (Human immunodeficiency virus 1, Fig 4, PBMC, read-out: inhibition of HIV-1BaL replication). Moreover, the “APHS concentrations that inhibit HIV-1 production” value in assay [3] (Fig 4, PBMC infected with HIV-1AT or HIV-1BaL, 4 and 5 days of incubation) is reported as “above 1 µM”. Besides, in assay [3] (Fig 6A, acute infection of PBMC, multiplicity of infection 0.01, 5 days of incubation), the “APHS concentrations that inhibit HIV-1Ba-L replication” value is “above 3 µM”. Also, the inhibition at 1 µM in assay [3] (Human immunodeficiency virus 1, PBMC, read-out: inhibition of HIV-1BaL production) worked out at 50%.

Broadly, the inhibition is the share of the control response that was lost under treatment.
